{"source": "patent US11834423B2", "about": "“Small molecule prolactin receptor inhibitors, pharmaceutical compositions and treatment methods using such inhibitors” (University of Cincinnati, priority 2016, dated 2023)", "key": {"[1]": {"tested_on": "MDA-MB-468 breast cancer cells", "test": "PRL-induced invasion of breast cancer cells, Boyden chambers", "format": "cell-based", "settings": "1 μM", "procedure": "(§1) FIG. 1A. Bar graph showing inhibition of PRL-induced invasion of breast cancer cells by SMI-1 and SMI-6; FIG. 1B. Bar graph showing only minimal cytotoxicity at indicated concentrations.\n(§2) Both SMI-1 and SMI-6 at 1 μM concentrations abrogated PRL-induced invasion of MDA-MB-468 breast cancer cells, using Boyden chambers (FIG. 1A)."}, "[2]": {"tested_on": "MDA-MB-468 breast cancer cells", "test": "LDH cytotoxicity assay", "format": "cell-based", "settings": "especially at 10-fold higher doses", "procedure": "as §1, §2"}, "[3]": {"tested_on": "Jurkat human lymphocytes", "test": "Autocrine PRL-dependent BrdU uptake (cell proliferation) by flow cytometry", "format": "cell-based", "settings": "for cell proliferation (BrdU uptake) driven by autocrine PRL: 1 μM SMI 24 hrs in 2% charcoal-stripped serum, then 1 nM PRL 24 hrs", "procedure": "FIG. 2. Bar graph showing suppression of autocrine PRL-dependent BrdU uptake in Jurkat lymphocytes by […] of each SMI, as determined by flow cytometry; the top panel indicates percent of live cells.\nTo examine whether the SMIs can suppress cell proliferation that is driven by autocrine PRL, Jurkat human lymphocytes were utilized, which produce large amounts of autocrine PRL. Autocrine PRL in lymphocytes is well known to promote cell proliferation. The cells were incubated for 24 hrs in 2% charcoal-stripped serum (which is devoid on exogenous lactogenic hormones) with 1 μM of SMI-1 or SMI-6, and then with 1 nM PRL for 24 hrs. BrdU uptake was analyzed by flow cytometry."}, "[4]": {"tested_on": "postoperative thermal pain", "test": "Thermal nociception (heat hyperalgesia, paw withdrawal latency) after hind paw surgery", "format": "in vivo", "settings": "female mice", "procedure": "FIG. 3. […] Female mice were operated on the right hind paw. One day after surgery, 5 μg SMI-6 was applied either peripherally or centrally/spinally (5 μg or 25 μg) and mice were subjected to thermal nociception or mechanical allodynia (increased sensitization to tactile stimuli). […] SMI-6 at the 25 μg dose was effective in alleviating thermal pain by as much as 75%."}, "[5]": {"tested_on": "postoperative mechanical pain", "test": "Mechanical allodynia (anesthesiometer, withdrawal threshold) after hind paw surgery", "format": "in vivo", "settings": "female mice, one day after surgery; 5 μg peripherally, 5 μg or 25 μg spinally", "procedure": "FIG. 4. […] BL—baseline: POP—postoperative pain; SMI-6 was applied either peripherally ([…]), or spinally ([…]); each value is a mean±SME of 6 mice/treatment. Female mice were operated on the right hind paw. One day after surgery, 5 μg SMI-6 was applied either peripherally or centrally/spinally (5 μg or 25 μg) and mice were subjected to thermal nociception or mechanical allodynia (increased sensitization to tactile stimuli). […] SMI-6 at the 25 μg dose was effective in alleviating thermal pain by as much as 75%. For evaluating allodynia, an anesthesiometer was used, which applied a constant ramp of increasing mechanical pressure to the injured paw. […] was measured in grams."}}}
{"molecule": "CCN(CC)c1ccc(/C=N/NC(=O)c2c(Cl)cnn2C)c(O)c1", "note": "[SMI-6]", "values": [{"measurement": "PRL-induced invasion of MDA-MB-468 breast cancer cells", "setting": "[1]", "result": "abrogated"}, {"measurement": "toxicity in LDH cytotoxicity assay", "setting": "[2]", "result": "minimal toxicity"}, {"measurement": "cell proliferation (BrdU uptake) driven by autocrine PRL", "setting": "[3]", "result": "completely blocked"}, {"measurement": "alleviation of thermal pain", "setting": "[4]; 25 μg dose", "result": "≤ 75", "unit": "%"}, {"measurement": "alleviation of thermal pain (leg withdrawal latency), dose dependence", "setting": "[4]; one day after surgery, 5 μg peripherally, 5 μg or 25 μg spinally", "result": "dose-dependent alleviation"}, {"measurement": "abrogation of mechanical pain (allodynia, withdrawal threshold)", "setting": "[5]", "result": "equally as effective"}]}
{"molecule": "Cn1nc(Nc2ccc(Cl)cc2O)c(N)nc1=O", "note": "[SMI-1]", "values": [{"measurement": "PRL-induced invasion of MDA-MB-468 breast cancer cells", "setting": "[1]", "result": "abrogated"}, {"measurement": "toxicity in LDH cytotoxicity assay", "setting": "[2]", "result": "minimal toxicity"}, {"measurement": "cell proliferation (BrdU uptake) driven by autocrine PRL", "setting": "[3]", "result": "completely blocked"}]}
{"molecule": "PRL: 25 kDa hormone produced by the anterior pituitary (protein, UniProt P01236 29-227, looked up) Prolactin: LPICPGGAARCQVTLRDLFDRAVVLSHYIHNLSSEMFSEFDKRYTHGRGFITKAINSCHTSSLATPEDKEQAQQMNQKDFLSLIVSILRSWNEPLYHLVTEVRGMQEAPEAILSKAVEIEEQTKRLLEGMELIVSQVHPETKENEIYPVWSGLPSLQMADEESRLSAYYNLLHCLRRDSHKIDNYLKLLKCRIIHNNNC", "values": [{"measurement": "effect of added PRL on BrdU uptake", "setting": "[3]; 1 nM PRL for 24 hrs", "result": "no effect"}]}
